Reference: patent US20200199174A1, “NOVEL FLUORESCENT LABELING METHOD” (priority 2017, published 2020)

Legend:
[1] = test system: HeLa cells expressing ECFP-5D4; test: Long-term-stable fluorescence imaging based on tag/probe binding/dissociation equilibrium; conditions: 10 nM probe in extracellular fluid, whole cell irradiated with intense excitation light
Method: HeLa cells expressing ECFP-5D4 were immersed for one hour at room temperature in HBS including 10 nM 6SiR-pCOONHMeoNP, and fluorescence imaging thereof was performed without modification of this state with the probe present at a concentration of 10 nM in the extracellular fluid. […] In super-resolution imaging and other fluorescence observation in which photobleaching has hitherto been a serious problem, the tag/probe method developed herein has the revolutionary characteristic of making it possible to obtain a semi-permanent fluorescence signal without limitation by photobleaching.

[2] = test system: 5D4 fusion proteins in HeLa cells; test: Fluorescent labeling of 5D4 fusion proteins expressed in HeLa cells (live cell imaging); type: cell-based
Method: HEK293T cells and HeLa cells were cultured in Dulbecco's Modified Eagle's Medium (DMEM, Wako) including 10% fetal bovine serum (FBS, SIGMA) at a carbon dioxide concentration of 5% and a temperature of 37° C.
Gene transfer into HeLa cells was performed using lipofection. For the HeLa cells under culture in a 24-well dish, 25 μL of Opti-MEM I (GIBCO) to which 0.5 μg of a plasmid had been added was added to a mixed solution of 2 μL of Lipofectamine 2000 (Invitrogen) and 25 μL of Opti-MEM I and incubated for five minutes at room temperature. This mixture was added to 500 μL of a medium 90-100% confluent with HEK293T cells and HeLa cells, and culturing was performed at 37° C. at a carbon dioxide concentration of 5%. Cell concentration was diluted to 1/10 5 to 8 hours after transfection, and cells were re-seeded on a glass dish. Cells were subjected to various imaging experiments after 24 hours had passed since transfection.
Cells were observed using an inverted microscope (IX-71, Olympus) provided with a xenon arc lamp. Images were captured using an EM-CCD camera (iXon EM+, Andor). During acquisition of a 6SiR-DNP fluorescence image, a Cy5-4040C filter set (Semrock) comprising a 608-648 nm excitation light filter, a 660 nm dichroic mirror, and a 672-712 nm absorption filter was used.
During acquisition of a CFP fluorescence image, a U-MCFPHQ filter set (Olympus) comprising a 424-438 nm excitation light filter, a 450 nm dichroic mirror, and a 460-510 nm absorption filter was used. An objective lens (10×NA 0.3, 20×NA 0.75: Olympus) was used for the screening in FIG. 3, and an oil immersion objective lens (100× NA 1.4: Olympus) was used in the observations in FIGS. 5, 8, 9, and 10.
The HeLa cell medium was drawn up and washed with HBS buffer solution (25 mM HEPES, 125 mM NaCl, 2.5 mM KCl, 2 mM CaCl2, 1 mM MgCl2, and 25 mM D-glucose; pH 7.4), and cells were then observed in the HBS buffer solution including 6SiR-DNP at a concentration of 100 nM or 10 nM. Image capture was started 5 minutes after the 6SiR-DNP was added. Images were analyzed using ImageJ (NIH).
5D4 expressed at an arbitrary site in a cell was labeled with 6SiR-DNP, and the ability to observe a fluorescence image using a fluorescence microscope was investigated. When cells expressing only ECFP were loaded with 6SiR-DNP (FIG. 8A), and when ECFP to which 5D4 was added was expressed in cells but the cells were not loaded with 6SiR-DNP, a fluorescence signal due to 6SiR-DNP was not observed (FIG. 8B).
Using a β-tubulin protein as an observation object, a 5D4 fusion protein expression construct was transgenically introduced into a Hela cell. […] An attempt was also made to observe b-actin in the cell. When a fusion protein of β-actin and 5D4 was expressed in a HeLa cell and the cell was observed, a fibrous structure characteristic of β-actin was observed (FIG. 9B). In order to visualize F-actin internal to the cell, an expression construct in which a peptide sequence (Lifeact sequence) for specifically binding to F-actin was added to the N-terminus of 5D4 was transgenically introduced into a HeLa cell. A characteristic fibrous structure was observed that was similar to the structure observed when a fusion protein of β-actin and 5D4 was expressed in the cell (FIG. 9C).

[3] = test system: ECFP-5D4 (Y96F) with endoplasmic reticulum localization signal in HeLa cells; test: Super-resolution imaging by single-molecule localization; type: cell-based; conditions: 10 nM probe, 640 nm laser, relative to normal fluorescence microscope image
Method: An ECFP-5D4 (Y96F) expression plasmid (pECFP-5D4 (Y96F)-ER) to which an endoplasmic reticulum localization signal sequence was added was introduced to HeLa cells cultured on a 96-well plate, using Lipofectamine 2000. At 20 hours after plasmid introduction, the cells were treated with trypsin/EDTA and stripped, and then re-seeded on a cover glass coated with collagen/poly-L-lysine. At 20 hours after re-seeding, the cells were washed with HBS, loaded with 10 nM 6SiR-DNP, and subjected to super-resolution imaging. A specimen was excited using a 640 nm semiconductor laser, and fluorescence intermittency images of a single molecule were continuously acquired at an exposure of 16 milliseconds by a backside-illuminated cooled EM-CCD camera (iXon, Andor Technology). A centroid position of a bright point of single-molecule fluorescence in each image was determined, and a super-resolution image was reconstructed.

5D4 = test: Fluorescence change characteristics of fluorophore-DNP pair in presence and absence of 5D4; type: biochemical, mouse
Method: The anti-DNP scFv was expressed and purified as a fusion protein of maltose-binding protein. Escherichia coli BL21 (DE3) was transformed with the pMalc5E vector (pMalc5E-scFv) into which the purification object scFv sequence was introduced, and was cultured overnight on an LB medium plate including 100 μg/mL of ampicillin. A single colony was picked up and cultured overnight in 5 mL of a liquid LB medium including 100 μg/mL of ampicillin, and 1 mL of the resultant culture liquid was transferred to 100 mL of LB medium including 100 μg/mL of ampicillin. Shake culturing was performed at 200 rpm and a temperature of 37° C. until an optical density at 600 nm of 0.8 was reached, and after shake culturing was performed for 30 minutes at 15° C., IPTG was added to give a final concentration of 0.5 mM, and shake culturing was continued overnight. The E. coli were recovered after culturing and were disrupted using a sonicator. […] An eluate was replaced with PBS, and yield was quantified by the Bradford method, after which the eluate was subjected to the measurements described below.
RNA was extracted from the hybridomas of the resultant four clones, and cDNA fragments of the variable regions of the light chains and heavy chains of monoclonal antibodies were obtained by reverse transcription. The cDNA fragments of the variable regions of the light chains and heavy chains were connected via a linker sequence by overlap PCR, and scFv constructs were constructed only from subclones (4E10 and 5D4) derived from wells 1E10 and 3B12, respectively. […] The nucleic acid sequence of the cDNA sequence coding for 5D4 was identified by sequencing (SEQ ID NO: 8), an amino acid sequence determined from the result thereof was analyzed using the IMGT database (http://www.imgt.org/), and a […] region was specified (FIG. 4).
This fluorescence characteristic is similar to that of Cy5 dye, which is widely used in fluorescence imaging in cells. In the presence of 5D4, the fluorescence intensity of 6SiR-DNP was increased by a factor of 98 relative to the fluorescence intensity thereof in the absence of 5D4 (FIG. 6B). When fluorescence quantum yield of 6SiR-DNP in a state in which 6SiR-DNP is bound to 5D4 was measured, the fluorescence quantum yield in the presence of an excess of 5D4 was 0.57. This value for the fluorescence quantum yield is large, and is equal to or greater than that of Cy5 (quantum yield=0.2-0.4) and Cy5.5 (quantum yield=0.24), which are also highly versatile fluorescent dyes in cell labeling experiments (Q. Zheng et al., Ultra-stable organic fluorophores for single-molecule research. Chem Soc Rev 43, 1044-1056 (2014).).

| Compound | fluorescence signal after photobleaching [1] | fluorescent labeling at targeted intracellular sites ([2]; ECFP-5D4 with localization peptide for nucleus, cell membrane, endoplasmic reticulum, final concentration 0.1 μM) | fluorescence image of STIM1-5D4 fusion protein ([2]; HeLa cell stained with 6SiR-DNP) | fluorescence image of tubulin-5D4 fusion protein ([2]; HeLa cell, 6SiR-DNP present in the extracellular fluid) | 6SiR-DNP fluorescence signal ([2]; HeLa cells expressing 5D4 as fusion protein with ECFP) | fluorescence signal due to 6SiR-DNP ([2]; cells expressing only ECFP loaded with 6SiR-DNP) | super-resolution image of endoplasmic reticulum [3] | fluorescence quantum yield (5D4; bound to 5D4, in the presence of an excess of 5D4) | fluorescence intensity increased by a factor relative to absence of 5D4 (5D4; in the presence of 5D4) | absorption maximum (5D4; when 5D4 was present) [nm] | fluorescence maximum (5D4; when 5D4 was present) [nm] |
| --- | --- | --- | --- | --- | --- | --- | --- | --- | --- | --- | --- |
| CNC(=O)c1ccc(NCCOCCOCCNC(=O)c2ccc(C(=O)[O-])c(C3=C4C=CC(=[N+](C)C)C=C4[Si](C)(C)c4cc(N(C)C)ccc43)c2)c([N+](=O)[O-])c1 [6SiR-pCOONHMeoNP, 2-(7-(dimethylamino)-3-(dimethylimino)-5,5-dimethyl-3,5-dihydrodibenzo[b,e]silin-10-yl)-4-((2-(2-(2-((4-(methylcarbamoyl)-2-nitrophenyl)amino)ethoxy)ethoxy)ethyl)carbamoyl)benzoate] | recovery of the fluorescence signal after photobleaching was observed |  |  |  |  |  |  |  |  |  |  |
| CN(C)c1ccc2c(c1)[Si](C)(C)C1=CC(=[N+](C)C)C=CC1=C2c1cc(C(=O)NCCOCCOCCNc2ccc([N+](=O)[O-])cc2[N+](=O)[O-])ccc1C(=O)[O-] [Probe 6SiR-DNP, 2-(7-(dimethylamino)-3-(dimethylimino)-5,5-dimethyl-3,5-dihydrodibenzo[b,e]silin-10-yl)-4-((2-(2-(2-((2,4-dinitrophenyl)amino)ethoxy)ethoxy)ethyl)carbamoyl)benzoate] |  | fluorescent labeling at the targeted intracellular sites was accomplished for all the cells | a structure running along the endoplasmic reticulum and microtubules was observed | a fibrous structure characteristic of tubulin was observed | observed covering the entire cytoplasm | not observed | visualized with high spatial resolution | 0.57 | 98 | 653 | 668 |
